Laboratory results from patent US11458149B1, “TEAD inhibitors and uses thereof” (Ikena Oncology, Inc., priority 2019, dated 2022).
Where two headings read alike, the source gives them in different places.

How the values were obtained:
[1] = test system: TEAD; assay: TEAD reporter assay (Hippo Pathway TEAD Reporter - MCF7 cell line, luciferase); assay type: cell-based, human
Description: TEAD inhibition can be assayed using Hippo Pathway TEAD Reporter—MCF7 Cell Line (BPS Bioscience, Catalog #: 60618).
The TEAD Reporter—MCF7 cell line contains the firefly luciferase gene under the control of TEAD responsive elements stably integrated into the human breast cancer cell line, MCF7. Inside the cells, basal unphosphorylated YAP/TAZ remains in the nucleus and induces the constitutive expression of luciferase reporter. The cell line is validated for the inhibition of the expression of luciferase reporter by the activators of the Hippo pathway.
• 1) Harvest TEAD Reporter—MCF7 cells from culture in growth medium and seed cells at a density of 35,000 cells per well into white clear-bottom 96-well microplate in 45 μl of assay medium. • 2) Incubate cells at 37° C. in a CO2 incubator for overnight. • 3) Dilute the activators (H2O2 or okadaic acid) stock in assay medium. Add 5 μl of diluted activators to the wells. The final concentration of DMSO in assay medium is 0.1%. • 4) Add 5 μl of assay medium with same concentration of DMSO without activator to control wells. • 5) Add 50 μl of assay medium with DMSO to cell-free control wells (for determining background luminescence). • 6) Set up each treatment in at least triplicate. • 7) Incubate cells at 37° C. in a CO2 incubator for 5-6 hours. • 8) Perform luciferase assay using the ONE-Step™ Luciferase Assay System following the protocol provided: Add 100 μl of ONE-Step™ Luciferase reagent per well and rock at room temperature for ˜15 minutes. Measure luminescence using a luminometer. • 9) Data Analysis: Obtain the background-subtracted luminescence by subtracting the average background luminescence (cell-free control wells) from the luminescence reading of all wells.
(§1) Certain compounds were tested in TEAD reporter assay, and in H226 and H28. A: EC50<0.1 uM; B: 0.1 uM≤EC50≤0.5 uM; C: EC50>0.5 uM.

[2] = test system: H226; assay: Anti-proliferation assay in H226 cells; assay type: cell-based, human
Procedure: as §1
Individual cell lines were grown in medium according to supplier instructions and seeded into 96-well plates at a density that ensured logarithmic growth over 72 hours. TEAD inhibitor compounds were administered to cells at a top concentration of 10 μm and subsequently a 10 point 3-fold serial dilution was conducted. After 72 hours, proliferation was quantified using Cell TITERGLO™ (Promega, Inc.) and compared to vehicle control. IC50 and EC50 values were generated using XLFit curve fitting software.

[3] = Homo sapiens, MCF7, TEAD Reporter - MCF7 cells, read-out: TEAD Reporter Assay EC50
[4] = Homo sapiens, NCI-H226, H226 cells, read-out: H226 EC50
[5] = TEAD Reporter - MCF7 cells, read-out: TEAD Reporter Assay EC50
[6] = H226 cells, read-out: H226 EC50

| EC50 [1, 3] [µM] | EC50 [2, 4] [µM] | SMILES | further results |
| --- | --- | --- | --- |
| > 0.5 | > 0.5 | C=CC(=O)Nc1ccc(C)c(Oc2cc(C(F)(F)F)ccc2OC)c1 [Compound I-32, N-[3-[2-Methoxy-5-(trifluoromethyl)phenoxy]-4-methyl-phenyl]prop-2-enamide] | – |
| > 0.5 | – | C=CC(=O)Nc1ccc2c(c1)N(c1ccc(C(F)(F)F)cc1)CCC2 [Compound I-34, N-[1-[4-(Trifluoromethyl)phenyl]-3,4-dihydro-2H-quinolin-7-yl]prop-2-enamide] | – |
| > 0.5 | 0.1 to 0.5 | C=CC(=O)Nc1ccc2c(c1)N(c1cccc(C(F)(F)F)c1)CCC2 [Compound I-37, N-[1-[3-(trifluoromethyl)phenyl]-3,4-dihydro-2H-quinolin-7-yl]prop-2-enamide] | – |
| > 0.5 | > 0.5 | C=CC(=O)Nc1cccc(N2CCCc3ccc(C(F)(F)F)cc32)c1 [Compound I-38, N-[3-[7-(trifluoromethyl)-3,4-dihydro-2H-quinolin-1-yl]phenyl]prop-2-enamide] | – |
| > 0.5 | > 0.5 | NC(=O)/C=C/c1cc(Oc2cccc(C(F)(F)F)c2)cc2ncccc12 [Compound I-39, (E)-3-[7-[3-(trifluoromethyl)phenoxy]-5-quinolyl]prop-2-enamide] | – |
| > 0.5 | > 0.5 | C=CC(=O)Nc1ccc(C)c(Oc2cc(C(F)(F)F)ccc2Br)c1 [Compound I-41, N-[3-[2-bromo-5-(trifluoromethyl)phenoxy]-4-methyl-phenyl]prop-2-enamide] | – |
| < 0.1 | 0.1 to 0.5 | C=CC(=O)Nc1cc(Oc2cccc(C(F)(F)F)c2)cc2ncccc12 [Compound I-42] | – |
| – | – | C=CC(=O)Nc1cccc(N2CCCc3cc(C(F)(F)F)ccc32)c1 [Compound I-43] | EC50 ([1]; Homo sapiens, MCF7, read-out: TEAD Reporter Assay EC50 (uM)): > 0.5 µM; EC50 ([2]; Homo sapiens, NCI-H226, read-out: H226 EC50 (uM)): > 0.5 µM |
| < 0.1 | < 0.1 | C=CC(=O)Nc1cc(Oc2cccc(C(F)(F)F)c2)c2cccnc2c1 [Compound I-44, N-[5-[3-(Trifluoromethyl)phenoxy]-7-quinolyl]prop-2-enamide] | – |
| < 0.1 | < 0.1 | C=CC(=O)Nc1cc(Oc2cccc(C(F)(F)F)c2)c(C)cn1 [Compound I-45] | – |
| > 0.5 | > 0.5 | C=CC(=O)N[C@@H]1CCCN(Cc2cccc(C(F)(F)F)c2)C1 [Compound I-47, N-[(3R)-1-[[3-(trifluoromethyl)phenyl]methyl]-3-piperidyl]prop-2-enamide] | – |
| > 0.5 | – | C=CC(=O)N[C@H]1CCCN(Cc2cccc(C(F)(F)F)c2)C1 [Compound I-48, N-[(3S)-1-[[3-(trifluoromethyl)phenyl]methyl]-3-piperidyl]prop-2-enamide] | – |
| > 0.5 | > 0.5 | C=CC(=O)NC1CCN(Cc2cccc(C(F)(F)F)c2)CC1 [Compound I-51, N-[1-[[3-(trifluoromethyl)phenyl]methyl]-4-piperidyl]prop-2-enamide] | – |
| 0.1 to 0.5 | 0.1 to 0.5 | C=CC(=O)NC1CCN(C(=O)c2ccc(C(F)(F)F)cc2)CC1 [Compound I-52, N-[1-[4-(trifluoromethyl)benzoyl]-4-piperidyl]prop-2-enamide] | – |
| 0.1 to 0.5 | 0.1 to 0.5 | C=CC(=O)N1CCC(NCc2ccc(C(F)(F)F)cc2)CC1 [Compound I-53, 1-[4-[[4-(trifluoromethyl)phenyl]methylamino]-1-piperidyl]prop-2-en-1-one] | – |
| > 0.5 | > 0.5 | C=CC(=O)NC1CCN(Cc2ccccc2)CC1 [Compound I-54, N-(1-benzyl-4-piperidyl)prop-2-enamide] | – |
| 0.1 to 0.5 | 0.1 to 0.5 | C=CC(=O)N[C@@H]1CCN(Cc2ccc(C(F)(F)F)cc2)C1 [Compound I-55, N-[(3R)-1-[[4-(trifluoromethyl)phenyl]methyl]pyrrolidin-3-yl]prop-2-enamide] | – |
| – | – | C=CC(=O)NC1CCC(Nc2ccc(C(F)(F)F)cc2)CC1 (stereo not shown) [Compound I-56, N-[4-[4-(trifluoromethyl)anilino]cyclohexyl]prop-2-enamide] | EC50 [1, 5]: > 0.5 µM; EC50 [2, 6]: > 0.5 µM |

| EC50 [1, 3] [µM] | EC50 [2, 4] [µM] | SMILES | further results |
| --- | --- | --- | --- |
| > 0.5 | > 0.5 | C=CC(=O)N[C@H]1CCN(Cc2ccc(C(F)(F)F)cc2)C1 [Compound I-57, N-[(3S)-1-[[4-(trifluoromethyl)phenyl]methyl]pyrrolidin-3-yl]prop-2-enamide] | – |
| – | – | C=CC(=O)NC1CCC(Nc2ccc(C(F)(F)F)cc2)CC1 (stereo not shown) [Compound I-58, N-[4-[4-(trifluoromethyl)anilino]cyclohexyl]prop-2-enamide] | EC50 [1, 5]: > 0.5 µM; EC50 [2, 6]: > 0.5 µM |
| > 0.5 | > 0.5 | C=CC(=O)N1CCC(Nc2ccc(C(F)(F)F)cc2)CC1 [Compound I-59, 1-[4-[4-(trifluoromethyl)anilino]-1-piperidyl]prop-2-en-1-one] | – |
| 0.1 to 0.5 | < 0.1 | C=CC(=O)N[C@H]1Cc2ccccc2N(Cc2cccc(C(F)(F)F)c2)C1 [Compound I-60, N-[(3S)-1-[[3-(trifluoromethyl)phenyl]methyl]-3,4-dihydro-2H-quinolin-3-yl]prop-2-enamide] | – |
| > 0.5 | > 0.5 | C=CC(=O)N1CCC(NCc2cccc(C(F)(F)F)c2)CC1 [Compound I-61] | – |
| 0.1 to 0.5 | > 0.5 | C=CC(=O)NC1CCN([C@@H](C)c2ccc(C(F)(F)F)cc2)CC1 [Compound I-63, N-[1-[(1S)-1-[4-(Trifluoromethyl)phenyl]ethyl]-4-piperidyl]prop-2-enamide] | – |
| < 0.1 | < 0.1 | C=CC(=O)N1CC[C@H](NCc2ccc(C(F)(F)F)cc2)C1 [Compound I-64, 1-[(3S)-3-[[4-(Trifluoromethyl)phenyl]methylamino]pyrrolidin-1-yl]prop-2-en-1-one] | – |
| 0.1 to 0.5 | > 0.5 | C=CC(=O)N1CC[C@H](NCc2cccc(C(F)(F)F)c2)C1 [Compound I-65, 1-[(3S)-3-[[3-(trifluoromethyl)phenyl]methylamino]pyrrolidin-1-yl]prop-2-en-1-one] | – |
| > 0.5 | > 0.5 | C=CC(=O)NC1CCN(c2cccc3ccccc23)CC1 [Compound I-66, N-[1-(1-Naphthyl)-4-piperidyl]prop-2-enamide] | – |
| 0.1 to 0.5 | 0.1 to 0.5 | C=CC(=O)NC1CCC(Oc2ccc(C(F)(F)F)cc2)CC1 (stereo not shown) [Compound I-67, N-[4-[4-(Trifluoromethyl)phenoxy]cyclohexyl]prop-2-enamide] | – |
| 0.1 to 0.5 | > 0.5 | C=CC(=O)N[C@H]1CCN(Cc2ccc(C(F)(F)F)cc2)c2ccccc21 [Compound I-68, N-[(4S)-1-[[4-(Trifluoromethyl)phenyl]methyl]-3,4-dihydro-2H-quinolin-4-yl]prop-2-enamide] | – |
| – | – | C=CC(=O)NC1CCC(Oc2ccc(C(F)(F)F)cc2)CC1 (stereo not shown) [Compound I-70, N-[4-[4-(Trifluoromethyl)phenoxy]cyclohexyl]prop-2-enamide] | EC50 [1, 5]: < 0.1 µM; EC50 [2, 6]: < 0.1 µM |
| < 0.1 | < 0.1 | C=CC(=O)N[C@@H]1Cc2ccccc2N(Cc2cccc(C(F)(F)F)c2)C1 [Compound I-71, N-[(3R)-1-[[3-(Trifluoromethyl)phenyl]methyl]-3,4-dihydro-2H-quinolin-3-yl]prop-2-enamide] | – |
| 0.1 to 0.5 | < 0.1 | C=CC(=O)N1C[C@@H]2[C@H](C1)[C@H]2NCc1cccc(C(F)(F)F)c1 [Compound I-72, 1-[(1S,5R)-6-[[3-(trifluoromethyl)phenyl]methylamino]-3-azabicyclo[3.1.0]hexan-3-yl]prop-2-en-1-one] | – |
| – | – | C=CC(=O)NC1(C)CCN(Cc2ccc(C(F)(F)F)cc2)CC1 [Compound I-73, N-[4-methyl-1-[[4-(trifluoromethyl)phenyl]methyl]-4-piperidyl]prop-2-enamide] | EC50 [1, 5]: > 0.5 µM; EC50 [2, 6]: > 0.5 µM |
| > 0.5 | 0.1 to 0.5 | FC(F)(F)c1ccc(CN2CCC3(CC2)CC(Br)=NO3)cc1 [Compound I-149, 3-bromo-8-[[4-(trifluoromethyl)phenyl]methyl]-1-oxa-2,8-diazaspiro[4.5]dec-2-ene] | – |
| 0.1 to 0.5 | 0.1 to 0.5 | C=CC(=O)N1CC[C@@H](NCc2cccc(C(F)(F)F)c2)C1 [Compound I-386, 1-[(3R)-3-[[3-(Trifluoromethyl)phenyl]methylamino]pyrrolidin-1-yl]prop-2-en-1-one] | – |
| > 0.5 | > 0.5 | C=CC(=O)NC1CCN(Cc2ccc(SC(F)(F)F)cc2)CC1 [Compound I-387] | – |
